According to US10179125B2, “Substituted pyridines as bromodomain inhibitors” (Zenith Epigenetics Ltd., priority 2014, dated 2019):

How the values were obtained:
[1] = biological target: T1, Brd4 bromodomain 1 (BRD4(1)) (Homo sapiens, UniProt O60885); experiment: Inhibition of tetra-acetylated histone H4 binding to BET bromodomain (HTRF/FRET); details: His-tagged bromodomain 200 nM, biotinylated tetra-acetylated histone H4 peptide, 2 h room temperature
T1 construct: made in house; host or cells: E. coli BL21(DE3)
Experimental: Proteins were cloned and overexpressed with a N-terminal 6×His tag, then purified by nickel affinity followed by size exclusion chromatography. Briefly, E. coli BL21(DE3) cells were transformed with a recombinant expression vector encoding N-terminally Nickel affinity tagged bromodomains from Brd2, Brd3, Brd4. Cell cultures were incubated at 37° C. with shaking to the appropriate density and induced overnight with IPTG. The supernatant of lysed cells was loaded onto Ni-IDA column for purification, Eluted protein was pooled, concentrated and further purified by size exclusion chromatography. Fractions representing monomeric protein were pooled, concentrated, aliquoted, and frozen at −80° C. for use in subsequent experiments.
Binding of tetra-acetylated histone H4 and BET bromodomains was confirmed by a Homogenous Time Resolved Fluorescence Resonance Energy Transfer (HTRF®) method, N-terminally His-tagged bromodomains (200 nM) and biotinylated tetra-acetylated histone H4 peptide (25-50 nM, Millipore) were incubated in the presence of Europium Cryptate-labeled streptavidin (Cisbio Cat, #610SAKLB) and XL665-labeled monoclonal anti-His antibody (Cisbio Cat.1461HISXLB) in a white 96 well microtiter plate (Greiner). For inhibition assays, serially diluted test compound was added to these reactions in a 0.2% final concentration of DMSO. Duplicate wells were used for each concentration tested. Final buffer concentrations were 30 mM HEPES pH 7.4, 30 mM NaCl, 0.3 mM CHAPS, 20 mM phosphate pH 7.0, 320 mM KF, 0.08% BSA. After a 2 h incubation at room temperature, fluorescence was measured at 665 and 620 nm with a SynergyH4 plate reader (Biotek). The binding inhibitory activity was shown by a decrease in […] relative to 620 nm fluorescence. IC50 values were determined from a dose response curve.

hIL-17 = experiment: Inhibition of hIL-17 mRNA transcription in OKT3-stimulated peripheral blood mononuclear cells; type: cell-based; details: human PBMC, OKT3 antibody 6 h, read-out: IL-17 activity
Experimental: Human peripheral blood mononuclear cells were plated (2.0×10^5 cells per well) in a 96-well plate in 45 μL OpTimizer T Cell expansion media (Life Technologies) containing 20 ng/ml IL-2 and penicillin/streptomycin. The cells were treated with increasing concentrations of the test compound or DMSO (0.1%), and incubated at 37° C., 5% CO2 for 1 h before addition of 10× stock OKT3 antibody at 10 ug/ml in media. Triplicate wells were used for each concentration, Cells were incubated at 37° C., 5% CO2 for 6 h before the cells were harvested. At time of harvest, cells were pelleted by centrifugation at 800 rpm for 5 min. Cells were harvested using the mRNA Catcher PLUS kit according to manufacturer's instructions. The eluted mRNA was then used in a one-step quantitative real-time PCR reaction, using components of the RNA UltraSense™ One-Step Kit (Life Technologies) together with Applied Biosystems TaqMan® primer-probes for hIL-17 and Cyclophilin. Real-time PCR plates were run on a ViiA™ 7 real time PCR machine (Applied Biosystems), data was analyzed, normalizing the Ct values for hIL-17 to an internal control, prior to determining the fold induction of each unknown sample, relative to the control.

hIL-6 = experiment: Inhibition of hIL-6 mRNA transcription in LPS-stimulated U937 cells; type: cell-based, Human; details: Homo sapiens, U-937, PMA-differentiated U937 cells, 1 h pretreatment, LPS 3 h, read-out: IL-6 activity
Experimental: Human leukemic monocyte lymphoma U937 cells (CRL-1593.2) were plated at a density of 3.2×10^4 cells per well in a 96-well plate in 100 μL RPMI-1640 containing 10% FBS and penicillin/streptomycin, and differentiated into macrophages for 3 days in 60 ng/mL PMA ([…]) at 37° C. in 5% CO2 prior to the addition of compound. The cells were pretreated for 1 h with increasing concentrations of test compound in 0.1% DMSO prior to stimulation with 1 ug/mL lipopolysaccharide from Escherichia coli. Triplicate wells were used for each concentration. The cells were incubated at 37° C., 5% CO2 for 3 h before the cells were harvested. At time of harvest, media was removed and cells were rinsed in 200 μL PBS. Cells were harvested using the mRNA Catcher PLUS kit according to manufacturer's instructions. The eluted mRNA was then used in a one-step quantitative real-time PCR reaction using components of the RNA UltraSense™ One-Step Kit (Life Technologies) together with Applied Biosystems TaqMan® primer-probes for hIL-6 and Cyclophilin. Real-time PCR plates were run on a ViiA™7 real time PCR machine (Applied Biosystems), data was analyzed, normalizing the Ct values for hIL-6 to an internal control, prior to determining the fold expression of each sample, relative to the control.

cMYC = experiment: Inhibition of cMYC expression in MV4-11 cells (real-time PCR); type: cell-based, Human; details: 3 h, cMYC mRNA; for IC50: Homo sapiens, read-out: c-myc activity
Experimental: MV4-11 cells (CRL-9591) were plated at a density of 2.5×10^4 cells per well in 96 well U-bottom plates and treated with increasing concentrations of test compound or DMSO (0.1%) in IMDM media containing 10% FBS and penicillin/streptomycin, and incubated for 3 h at 37° C. Triplicate wells were used for each concentration. Cells were pelleted by centrifugation and harvested using the mRNA Catcher PLUS kit according to manufacturer's instructions. The eluted mRNA isolated was then used in a one-step quantitative real-time PCR reaction, using components of the RNA UltraSense™ One-Step Kit (Life Technologies) together with Applied Biosystems TaqMan® primer-probes for cMYC and Cyclophilin, Real-time PCR plates were run on a ViiA™7 real time PCR machine (Applied Biosystems), data was analyzed, normalizing the Ct values for cMYC to an internal control, prior to determining the fold expression of each sample, relative to the control.

Human AML MV-4-11 cells = experiment: Inhibition of cell proliferation in MV4-11 cells (CellTiter Aqueous One); type: cell-based; details: 72 h; for IC50: Homo sapiens
Experimental: MV4-11 cells (CRL-9591) were plated at a density of 5×10^4 cells per well in 96 well flat bottom plates and treated with increasing concentrations of test compound or DMSO (0.1%) in IMDM media containing 10% FBS and penicillin/streptomycin. Triplicate wells were used for each concentration and a well containing only media was used as a control. Plates were incubated at 37° C., 5% CO2 for 72 h before adding 20 μL of the CellTiter Aqueous One Solution (Promega) to each well and incubated at 37° C., 5% CO2 for an additional 3-4 h. The absorbance was read at 490 nm in a spectrophotometer and the percentage of cell titer relative to DMSO-treated cells was calculated after correcting for background by subtracting the blank well's signal. IC50 values were calculated using the GraphPad Prism software.

SMILES | IC50 [1] | IC50 (hIL-17) | IC50 (hIL-6) | IC50 (cMYC) | IC50 (Human AML MV-4-11 cells) | c-myc activity (cMYC) | Cell Proliferation activity (Human AML MV-4-11 cells)
COc1ncc(-c2c(C)noc2C)cc1NCc1ccc(F)cc1 [Example 6, 5-(3,5-dimethylisoxazol-4-yl)-N-(4-fluorobenzyl)-2-methoxypyridin-3-amine] | ≤ 300 nM | 300 to 3000 nM | 300 to 3000 nM | 300 to 3000 nM | 3000 to 30000 nM |  | 
COc1ncc(-c2c(C)noc2C)cc1OCc1ccccc1 [Example 10, 4-(5-(benzyloxy)-6-methoxypyridin-3-yl)-3,5-dimethylisoxazole] | ≤ 300 nM | 3000 to 30000 nM | 300 to 3000 nM | 300 to 3000 nM | 3000 to 30000 nM |  | 
COc1ncc(-c2c(C)noc2C)cc1NCc1ccc(Cl)cc1 [Example 14, N-(4-chlorobenzyl)-5-(3,5-dimethylisoxazol-4-yl)-2-methoxypyridin-3-amine] | ≤ 300 nM | 300 to 3000 nM | 3000 to 30000 nM |  | 3000 to 30000 nM |  | 
CNc1ncc(-c2c(C)noc2C)cc1NCc1ccc(C#N)s1 [Example 54, 5-(((5-(3,5-dimethylisoxazol-4-yl)-2-(methylamino)pyridin-3-yl)amino)methyl)thiophene-2-carbonitrile] | ≤ 300 nM |  | 300 to 3000 nM | 300 to 3000 nM | 3000 to 30000 nM |  | 
CNc1ncc(-c2c(C)noc2C)cc1NCc1ccccn1 [Example 55, 5-(3,5-dimethylisoxazol-4-yl)-N2-methyl-N3-(pyridin-2-ylmethyl)pyridine-2,3-diamine] | ≤ 300 nM |  | 300 to 3000 nM | 300 to 3000 nM | 300 to 3000 nM |  | 
CNc1ncc(-c2c(C)noc2C)cc1NCc1nccs1 [Example 56, 5-(3,5-dimethylisoxazol-4-yl)-N2-methyl-N3-(thiazol-2-ylmethyl)pyridine-2,3-diamine] | ≤ 300 nM |  | 300 to 3000 nM | 300 to 3000 nM | 300 to 3000 nM |  | 
COc1ncc(-c2c(C)noc2C)cc1NCc1nc2ccccc2s1 [Example 57, N-(benzo[d]thiazol-2-ylmethyl)-5-(3,5-dimethylisoxazol-4-yl)-2-methoxypyridin-3-amine] | ≤ 300 nM |  | 300 to 3000 nM | 300 to 3000 nM | 3000 to 30000 nM |  | 
COc1ncc(-c2c(C)noc2C)cc1NCc1cccc2ncccc12 [Example 58, 5-(3,5-dimethylisoxazol-4-yl)-2-methoxy-N-(quinolin-5-ylmethyl)pyridin-3-amine] | ≤ 300 nM |  | 300 to 3000 nM | 300 to 3000 nM | 300 to 3000 nM |  | 
COc1ncc(-c2c(C)noc2C)cc1Nc1cccnc1C [Example 59, 5-(3,5-dimethylisoxazol-4-yl)-2-methoxy-N-(2-methylpyridin-3-yl)pyridin-3-amine] | ≤ 300 nM |  | 300 to 3000 nM | 300 to 3000 nM | 3000 to 30000 nM |  | 
COc1ncc(-c2c(C)noc2C)cc1Nc1c(C)nn(C)c1C [Example 60, 5-(3,5-dimethylisoxazol-4-yl)-2-methoxy-N-(1,3,5-trimethyl-1H-pyrazol-4-yl)pyridin-3-amine] | ≤ 300 nM |  | ≤ 300 nM | ≤ 300 nM | 300 to 3000 nM |  | 
COc1ncc(-c2c(C)noc2C)cc1Nc1cc(C#N)ccc1C [Example 61, 3-((5-(3,5-dimethylisoxazol-4-yl)-2-methoxypyridin-3-yl)amino)-4-methylbenzonitrile] | ≤ 300 nM |  | 3000 to 30000 nM |  |  | Not Active | Not Active
COc1ncc(-c2c(C)noc2C)cc1Nc1cc(C(N)=O)ccc1C [Example 62, 3-((5-(3,5-dimethylisoxazol-4-yl)-2-methoxypyridin-3-yl)amino)-4-methylbenzamide] | ≤ 300 nM |  | 300 to 3000 nM | 300 to 3000 nM | 3000 to 30000 nM |  | 
COc1ncc(-c2c(C)noc2C)cc1Nc1cn(C)nc1C [Example 63, N-(1,3-dimethyl-1H-pyrazol-4-yl)-5-(3,5-dimethylisoxazol-4-yl)-2-methoxypyridin-3-amine] | ≤ 300 nM |  | 300 to 3000 nM | 300 to 3000 nM | 300 to 3000 nM |  | 
CNc1ncc(-c2c(C)noc2C)cc1Nc1cc(C#N)ccc1C [Example 64, 3-((5-(3,5-dimethylisoxazol-4-yl)-2-(methylamino)pyridin-3-yl)amino)-4-methylbenzonitrile] | 300 to 3000 nM |  | 300 to 3000 nM | 300 to 3000 nM | 3000 to 30000 nM |  | 
COc1ncc(-c2c(C)noc2C)cc1Oc1cc(C#N)ccc1C [Example 65, 3-((5-(3,5-dimethylisoxazol-4-yl)-2-methoxypyridin-3-yl)oxy)-4-methylbenzonitrile] | 300 to 3000 nM |  | 300 to 3000 nM | 3000 to 30000 nM | 3000 to 30000 nM |  | 
COc1ncc(-c2c(C)noc2C)cc1Oc1cccnc1C [Example 66, 4-(6-methoxy-5-((2-methylpyridin-3-yl)oxy)pyridin-3-yl)-3,5-dimethylisoxazole] | 300 to 3000 nM |  | 300 to 3000 nM | 3000 to 30000 nM | 3000 to 30000 nM |  | 
COc1ncc(-c2c(C)noc2C)cc1Oc1cc(C(N)=O)ccc1C [Example 67, 3-((5-(3,5-dimethylisoxazol-4-yl)-2-methoxypyridin-3-yl)oxy)-4-methylbenzamide] | ≤ 300 nM |  | 300 to 3000 nM | 300 to 3000 nM | 3000 to 30000 nM |  | 
CNc1ncc(-c2c(C)noc2C)cc1NCc1ccsc1 [Example 68, 5-(3,5-dimethylisoxazol-4-yl)-N2-methyl-N3-(thiophen-3-ylmethyl)pyridine-2,3-diamine] | ≤ 300 nM |  | 300 to 3000 nM | 300 to 3000 nM | 300 to 3000 nM |  | 
